# Source: PMC4157643 (Journal of pharmaceutical sciences, 2012)
# Where “and” joins values, the source holds several entries; their conditions need not be identical. Identical values can stand only once. Like-named read-outs stand apart in the source and are kept apart here.
# Columns and labels:
# [1] = ref [2],[4], cited from earlier work
# [2] = retina to scleral (R-S) direction, isolated rabbit RCS; ref [4]; cited from earlier work
# [3] = ref Ameer et al., [10]; cited from earlier work
# [4] = vitreous humor, two-compartment model, n=4
# [5] = in vivo; details: male, New Zealand white, rabbit
compound,measurement,setting,value
"COc1ccc([C@@H]2CC(=O)c3c(O)cc(O[C@@H]4O[C@H](CO[C@@H]5O[C@@H](C)[C@H](O)[C@@H](O)[C@H]5O)[C@@H](O)[C@H](O)[C@H]4O)cc3O2)cc1O [hesperidin, Hesperidin]",log P,[1],1.79 and 1.78
same,apparent permeability,[2],1.51 ± 0.78 × 10^−6 cm/s
same,oral bioavailability,[3],< 25%
same,AUC,[4]; intravitreal dose 1.5 µg,651 ± 88 µg·min/mL
same,Alpha,[4]; intravitreal dose 1.5 µg,0.0267 ± 0.0077 min⁻¹
same,Alpha_HL,[4]; intravitreal dose 1.5 µg,28 ± 7 min
same,Beta,[4]; intravitreal dose 1.5 µg,0.0016 ± 0.0004 min⁻¹
same,Beta_HL,[4]; intravitreal dose 1.5 µg,386 ± 116 min
same,CL,[4]; intravitreal dose 1.5 µg,0.0027 ± 0.0003 mL/min
same,CLD2,[4]; intravitreal dose 1.5 µg,0.0058 ± 0.0010 mL/min
same,Cmax,[4]; intravitreal dose 1.5 µg,3260 ± 1350 ng/mL
same,MRT,[4]; intravitreal dose 1.5 µg,9.08 ± 1.77 h
same,V2,[4]; intravitreal dose 1.5 µg,0.75 ± 0.62 mL
same,Vss,[4]; intravitreal dose 1.5 µg,1.48 ± 0.42 mL
same,AUC,[4]; intravitreal dose 4.5 µg,1575 ± 164 µg·min/mL
same,Alpha,[4]; intravitreal dose 4.5 µg,0.0249 ± 0.0109 min⁻¹
same,Alpha_HL,[4]; intravitreal dose 4.5 µg,31 ± 11 min
same,Beta,[4]; intravitreal dose 4.5 µg,0.0017 ± 0.0003 min⁻¹
same,Beta_HL,[4]; intravitreal dose 4.5 µg,407 ± 58 min
same,CL,[4]; intravitreal dose 4.5 µg,0.0029 ± 0.0003 mL/min
same,CLD2,[4]; intravitreal dose 4.5 µg,0.0054 ± 0.0026 mL/min
same,Cmax,[4]; intravitreal dose 4.5 µg,10820 ± 1120 ng/mL
same,MRT,[4]; intravitreal dose 4.5 µg,7.47 ± 0.917 h
same,V2,[4]; intravitreal dose 4.5 µg,0.87 ± 0.21 mL
same,Vss,[4]; intravitreal dose 4.5 µg,1.29 ± 0.21 mL
same,AUC,[4]; intravitreal dose 15 µg,4835 ± 861 µg·min/mL
same,Alpha,[4]; intravitreal dose 15 µg,0.0358 ± 0.0084 min⁻¹
same,Alpha_HL,[4]; intravitreal dose 15 µg,20 ± 5 min
same,Beta,[4]; intravitreal dose 15 µg,0.0014 ± 0.0004 min⁻¹
same,Beta_HL,[4]; intravitreal dose 15 µg,466 ± 98 min
same,CL,[4]; intravitreal dose 15 µg,0.0032 ± 0.0005 mL/min
same,CLD2,[4]; intravitreal dose 15 µg,0.0130 ± 0.0026 mL/min
same,Cmax,[4]; intravitreal dose 15 µg,25230 ± 3020 ng/mL
same,MRT,[4]; intravitreal dose 15 µg,11.1 ± 3.07 h
same,V2,[4]; intravitreal dose 15 µg,1.46 ± 0.40 mL
same,Vss,[4]; intravitreal dose 15 µg,2.07 ± 0.35 mL
"COc1ccc([C@@H]2CC(=O)c3c(O)cc(O)cc3O2)cc1O [hesperetin, Hesperetin]",apparent permeability,[2],2.52 ± 0.51 × 10^−6 cm/s
same,Vd,[5],0.001 to 0.0015 L
same,AUC,[5]; 1.5 ug,2980 ng·h/mL
same,Cmax,[5]; 1.5 ug,1020 ± 200 ng/mL
same,clearance,"[5]; 1.5 ug, CL",0.0093 ± 0.004 mL/min
same,half-life,"[5]; 1.5 ug, T1/2",1.83 ± 0.467 h
same,AUC,[5]; 4.5 ug,7920 ng·h/mL
same,Cmax,[5]; 4.5 ug,4510 ± 570 ng/mL
same,clearance,"[5]; 4.5 ug, CL",0.0096 ± 0.0015 mL/min
same,half-life,"[5]; 4.5 ug, T1/2",1.48 ± 0.233 h
same,AUC,[5]; 15 ug,29100 ng·h/mL
same,Cmax,[5]; 15 ug,14700 ± 1990 ng/mL
same,clearance,"[5]; 15 ug, CL",0.0086 ± 0.0007 mL/min
same,half-life,"[5]; 15 ug, T1/2",1.38 ± 0.167 h
same,clearance,"[5]; 15 ug, clearance rate (CL)",0.0086 to 0.0096 mL/min
same,half-life,"[5]; 15 ug, elimination half-life (T1/2)",1.39 to 1.84 h
glucosyl hesperidin [hesperidin G],log P,[1],−3.2
same,log P,[1]; listed as Hesperidin G,< −3.2
same,AUC,[4]; intravitreal dose 1.5 µg,688 ± 47 µg·min/mL
same,Alpha,[4]; intravitreal dose 1.5 µg,0.045 ± 0.019 min⁻¹
same,Alpha_HL,[4]; intravitreal dose 1.5 µg,17 ± 6 min
same,Beta,[4]; intravitreal dose 1.5 µg,0.0014 ± 0.0002 min⁻¹
same,Beta_HL,[4]; intravitreal dose 1.5 µg,495 ± 66 min
same,CL,[4]; intravitreal dose 1.5 µg,0.0022 ± 0.0002 mL/min
same,CLD2,[4]; intravitreal dose 1.5 µg,0.011 ± 0.002 mL/min
same,Cmax,[4]; intravitreal dose 1.5 µg,3790 ± 1060 ng/mL
same,MRT,[4]; intravitreal dose 1.5 µg,10.8 ± 1.5 h
same,Vss,[4]; intravitreal dose 1.5 µg,1.41 ± 0.14 mL
same,AUC,[4]; intravitreal dose 4.5 µg,1811 ± 269 µg·min/mL
same,Alpha,[4]; intravitreal dose 4.5 µg,0.028 ± 0.011 min⁻¹
same,Alpha_HL,[4]; intravitreal dose 4.5 µg,29 ± 16 min
same,Beta,[4]; intravitreal dose 4.5 µg,0.0015 ± 0.0002 min⁻¹
same,Beta_HL,[4]; intravitreal dose 4.5 µg,468 ± 82 min
same,CL,[4]; intravitreal dose 4.5 µg,0.0025 ± 0.0004 mL/min
same,CLD2,[4]; intravitreal dose 4.5 µg,0.003 ± 0.001 mL/min
same,Cmax,[4]; intravitreal dose 4.5 µg,20160 ± 6120 ng/mL
same,MRT,[4]; intravitreal dose 4.5 µg,6.97 ± 0.35 h
same,Vss,[4]; intravitreal dose 4.5 µg,1.05 ± 0.013 mL
same,AUC,[4]; intravitreal dose 15 µg,6167 ± 168 µg·min/mL
same,Alpha,[4]; intravitreal dose 15 µg,0.027 ± 0.007 min⁻¹
same,Alpha_HL,[4]; intravitreal dose 15 µg,27 ± 8 min
same,Beta,[4]; intravitreal dose 15 µg,0.0017 ± 0.0003 min⁻¹
same,Beta_HL,[4]; intravitreal dose 15 µg,414 ± 70 min
same,CL,[4]; intravitreal dose 15 µg,0.0024 ± 0.0002 mL/min
same,CLD2,[4]; intravitreal dose 15 µg,0.007 ± 0.001 mL/min
same,Cmax,[4]; intravitreal dose 15 µg,32050 ± 4390 ng/mL
same,MRT,[4]; intravitreal dose 15 µg,8.62 ± 1.33 h
same,Vss,[4]; intravitreal dose 15 µg,1.25 ± 0.16 mL
